From the supplement of paper PMC10307832

Legend:
Experiment in all cases: relative viability (nuclei count vs DMSO), 5 days (fraction); higher = more cells survive
[1] = compound: Cc1ccc2nc(NCCN)c3ncc(C)n3c2c1 + CS(=O)(=O)CCNCc1ccc(-c2ccc3ncnc(Nc4ccc(OCc5cccc(F)c5)c(Cl)c4)c3c2)o1 [Lapatinib] (partner 2 µM)
Outline: (§1)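 Lung cancer cell lines in 1536-well plates were dosed by pin tool the day after seeding, either with one drug alone or with a fixed anchor-drug dose plus five library-drug doses (not always all listed) in √10 steps. After 5 days, cells were fixed and their nuclei stained in one step (final 0.05% Triton X-100, 1% formaldehyde, 1 ug/ml Hoechst), then counted on 4× images. Relative viability is the nuclei count in treated wells divided by that in vehicle wells. Values are medians of duplicate plates.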

[2] = compound: Cc1ccc2nc(NCCN)c3ncc(C)n3c2c1 + O=C(c1cc(Cc2n[nH]c(=O)c3ccccc23)ccc1F)N1CCN(C(=O)C2CC2)CC1 [Olaparib] (partner 8 µM)
Outline: as §1

[3] = compound: O=C(/C=C/c1ccccc1)NC(NC(=S)Nc1cccc2cccnc12)C(Cl)(Cl)Cl [Salubrinal] + Cc1cc(Nc2cc(N3CCN(C)CC3)nc(Sc3ccc(NC(=O)C4CC4)cc3)n2)n[nH]1 [Tozasertib] (partner 0.1 µM)
Outline: as §1

[4] = compound: O=C(/C=C/c1ccccc1)NC(NC(=S)Nc1cccc2cccnc12)C(Cl)(Cl)Cl [Salubrinal] + Nc1ncn([C@H]2C[C@H](O)[C@@H](CO)O2)c(=O)n1 [Decitabine] (partner 2 µM)
Outline: as §1

| Cell Line | relative viability ([1]; first compound 0.04 µM) | relative viability ([1]; first compound 0.1265 µM) | relative viability ([1]; first compound 0.4 µM) | relative viability ([1]; first compound 1.265 µM) | relative viability ([1]; first compound 4 µM) | relative viability ([2]; first compound 0.04 µM) | relative viability ([2]; first compound 0.1265 µM) | relative viability ([2]; first compound 0.4 µM) | relative viability ([2]; first compound 1.265 µM) | relative viability ([2]; first compound 4 µM) | relative viability ([3]; first compound 0.08 µM) | relative viability ([3]; first compound 0.253 µM) | relative viability ([3]; first compound 0.8 µM) | relative viability ([3]; first compound 2.53 µM) | relative viability ([3]; first compound 8 µM) | relative viability ([4]; first compound 0.08 µM) | relative viability ([4]; first compound 0.253 µM) | relative viability ([4]; first compound 0.8 µM) | relative viability ([4]; first compound 2.53 µM) | relative viability ([4]; first compound 8 µM) |
| --- | --- | --- | --- | --- | --- | --- | --- | --- | --- | --- | --- | --- | --- | --- | --- | --- | --- | --- | --- | --- |
| NCI-H1793 | 0.942 | 0.697 | 0.734 | 0.581 | 0.737 | 1.06 | 0.812 | 0.836 | 0.651 | 0.795 | 0.504 | 0.637 | 0.234 | 0.26 | 0.326 | 0.625 | 0.494 | 0.521 | 0.467 | 0.608 |
| NCI-H1915 | 1.01 |  | 0.68 | 0.991 | 0.947 | 0.286 | 0.251 | 0.242 | 0.279 | 0.255 | 0.484 | 0.291 | 0.337 | 0.387 | 0.432 | 0.249 |  | 0.268 | 0.248 | 0.246 |
| NCI-H1944 | 0.772 | 0.805 | 0.642 | 0.978 | 0.758 | 0.388 | 0.387 | 0.403 | 0.397 | 0.388 | 0.269 | 0.269 | 0.276 | 0.229 | 0.278 | 0.445 | 0.452 | 0.43 | 0.476 | 0.428 |
| NCI-H1975 | 1.01 | 0.925 | 0.935 | 0.95 | 0.849 | 0.791 | 0.81 | 0.809 | 0.704 | 0.682 | 0.989 | 0.621 | 0.785 | 0.517 | 0.186 | 0.315 | 0.357 | 0.351 | 0.389 | 0.366 |
| NCI-H1993 | 0.844 | 0.887 | 0.695 | 0.74 | 0.629 | 1.12 | 0.962 | 0.86 | 0.624 | 1.06 | 0.653 | 0.577 | 0.597 | 0.674 | 0.649 | 0.567 | 0.662 | 0.593 |  | 0.59 |
| NCI-H2009 | 1.03 | 0.958 | 0.88 | 0.928 | 0.836 | 0.666 | 0.661 | 0.666 | 0.71 | 0.549 | 0.762 | 0.733 | 0.774 | 0.718 | 0.637 | 0.414 | 0.396 | 0.426 | 0.384 | 0.384 |
| NCI-H2023 | 0.949 | 0.884 | 0.651 | 1.26 | 0.69 | 0.503 | 0.56 | 0.541 | 0.458 | 0.254 | 0.323 | 0.286 | 0.323 | 0.236 | 0.182 | 0.238 | 0.219 | 0.236 | 0.246 | 0.221 |
